This passage reports IC50 and AC50 results from patent US20230148184A1, “COMPOUNDS AND METHODS FOR MODULATING SPLICING” (REMIX THERAPEUTICS INC., priority 2020, published 2023).

Structures are written as SMILES.

What all share (assay type): cell-based
One assay has as its system HTT mRNA. As to the kind of experiment: RT-qPCR splicing assay for HTT mRNA isoforms (canonical junction CJ and alternative junction AJ). The note with it: A673 or K562 cell line, 24 hours compound treatment; for IC50: decrease in CJ mRNA; for AC50: increase in AJ mRNA. The procedure, abridged:
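A673 (DMEM, 10% FBS) or K562 (IMDM, 10% FBS) cells were treated 24 h at 37 °C with an 11-point 3-fold series, top dose 10 uM, DMSO ≤0.25%. In lysates, HTT CJ and AJ isoforms were quantified by one-step RT-qPCR and normalized to PPIA (A673) or GAPDH/GUSB (K562), at least in duplicate.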

The test system of another assay is HTT CJ mRNA. As to the kind of experiment: Gene panel canonical junction qPCR assay, HTT. The note with it: decrease in CJ mRNA levels, RT-qPCR. In outline:
(§1)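 A673 or K562 cells treated 24 h at 37 °C with 11-point 3-fold dilutions (top 10 uM final, DMSO ≤0.25%); lysates analysed by one-step RT-qPCR for canonical-junction mRNA. ΔCt vs GAPDH, GUSB or PPIA housekeeper, normalised to DMSO (ΔΔCt), converted to RQ via 2^(−ΔΔCt) and percentage response.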

A further assay deals with SMN2 CJ mRNA. Briefly: Gene panel canonical junction qPCR assay, SMN2. To be noted: decrease in CJ mRNA levels, RT-qPCR. The procedure, abridged:
as §1

The next assay concerns Target C CJ mRNA. Briefly: Gene panel canonical junction qPCR assay, Target C. The note with it: decrease in CJ mRNA levels, RT-qPCR. In outline: as §1

In the case of `c1cnn(-c2ccc3c(c2)COc2nc(N4C[C@H]5CNC[C@H]5C4)ccc2-3)c1` [Compound 185], the IC50 is above 10 µM in the assay on HTT mRNA, above 10 µM in the assay with HTT CJ mRNA, 1 to 10 µM with SMN2 CJ mRNA and above 10 µM in the assay with Target C CJ mRNA. Further, the AC50 in the assay on HTT mRNA is above 10 µM.

As to `CC1(C)CC(Oc2ccc3c(n2)OCc2cc(-n4cccn4)ccc2-3)CC(C)(C)N1` [Compound 171], the IC50 lay within 1 to 10 µM with HTT mRNA, 1 to 10 µM with HTT CJ mRNA, 0.1 to 1 µM with SMN2 CJ mRNA and 1 to 10 µM in the assay with Target C CJ mRNA. In the assay with HTT mRNA, this molecule displayed an AC50 of 1 to 10 µM.

With `c1cnn(-c2ccc3c(c2)COc2nc(N4CCNCC4)ccc2-3)c1` [Compound 173], the IC50 in the assay with HTT mRNA is above 10 µM; in the assay on HTT CJ mRNA, above 10 µM; with SMN2 CJ mRNA, 1 to 10 µM; in the assay with Target C CJ mRNA, above 10 µM. The molecule also yielded an AC50 in the assay with HTT mRNA above 10 µM.

`CN(c1ccc2c(n1)OCc1cc(-c3ccc(=O)n(C)c3)ccc1-2)[C@@H]1C[C@H]2CC[C@@H](C1)N2` [Compound 158]: the IC50 in the assay on HTT mRNA, in the assay on HTT CJ mRNA, in the assay with SMN2 CJ mRNA and in the assay on Target C CJ mRNA was 0.1 to 1 µM in each case. The molecule also came in with an AC50 with HTT mRNA of 0.1 to 1 µM.

With `CN(c1ccc2c(n1)COc1cc(-n3cccn3)ccc1-2)C1CC(C)(C)NC(C)(C)C1` [Compound 125, N,2,2,6,6-pentamethyl-N-[8-(pyrazol-1-yl)-5H-chromeno[3,4-b]pyridin-3-yl]piperidin-4-amine], the IC50 with HTT mRNA, in the assay with HTT CJ mRNA, in the assay with SMN2 CJ mRNA and with Target C CJ mRNA was above 10 µM in each case. The same molecule showed an AC50 with HTT mRNA above 10 µM.

For `CN(c1ccc2c(n1)OCc1cc(-c3cnn(C)c3)ccc1-2)[C@@H]1C[C@H]2CC[C@@H](C1)N2` [Compound 150], the IC50 is below 0.1 µM in the assay on HTT mRNA, below 0.1 µM in the assay on HTT CJ mRNA, above 10 µM in the assay on SMN2 CJ mRNA and 0.1 to 1 µM with Target C CJ mRNA. This molecule also had an AC50 with HTT mRNA below 0.1 µM.

`Cc1ncc(-c2ccc3c(c2)COc2nc(N(C)[C@@H]4C[C@H]5CC[C@@H](C4)N5)ccc2-3)o1` [Compound 155]: the IC50 with HTT mRNA is below 0.1 µM; with HTT CJ mRNA, below 0.1 µM; in the assay on SMN2 CJ mRNA it was below 0.1 µM; with Target C CJ mRNA, 0.1 to 1 µM. The AC50 in the assay with HTT mRNA was below 0.1 µM.

For `CC1(C)CC(Oc2ccc3c(n2)OCc2cc(-n4cccn4)ccc2-3)CCN1` (centres unmarked) [Compound 186], the IC50 was 1 to 10 µM in the assay with HTT mRNA, 1 to 10 µM with HTT CJ mRNA, 0.1 to 1 µM in the assay with SMN2 CJ mRNA and above 10 µM in the assay on Target C CJ mRNA. Besides, the AC50 with HTT mRNA lay within 1 to 10 µM.

In the case of `CN(c1ccc2c(n1)OCc1cc(-n3cc(N)cn3)ccc1-2)[C@@H]1C[C@H]2CC[C@@H](C1)N2` [Compound 172], the IC50 in the assay on HTT mRNA is 0.1 to 1 µM; with HTT CJ mRNA, 0.1 to 1 µM; in the assay on SMN2 CJ mRNA it was below 0.1 µM; in the assay with Target C CJ mRNA, 0.1 to 1 µM. This molecule displayed an AC50 in the assay with HTT mRNA of 0.1 to 1 µM.

In the case of `c1cnn(-c2ccc3c(c2)COc2nc(N(C4CCNCC4)C4CC4)ccc2-3)c1` [Compound 202], the IC50 in the assay on HTT mRNA is 1 to 10 µM; with HTT CJ mRNA it was 1 to 10 µM; in the assay on SMN2 CJ mRNA, above 10 µM; in the assay on Target C CJ mRNA, above 10 µM. Moreover, the AC50 in the assay on HTT mRNA is above 10 µM.

With `CN(c1cnc2c(n1)OCc1cc(-c3cn[nH]c3)ccc1-2)[C@@H]1C[C@H]2CC[C@@H](C1)N2` [Compound 144, (exo)-N-methyl-N-[8-(1H-pyrazol-4-yl)-6H-isochromeno[3,4-b]pyrazin-3-yl]-8-azabicyclo[3.2.1]octan-3-amine], the IC50 with HTT mRNA was 0.1 to 1 µM; with HTT CJ mRNA, 0.1 to 1 µM; in the assay on SMN2 CJ mRNA, above 10 µM; with Target C CJ mRNA, 0.1 to 1 µM. For the same molecule, in the assay on HTT mRNA, the AC50 lay within 0.1 to 1 µM.

For `CN(c1ccc2c(n1)OCc1cc(-n3ccnc3)ccc1-2)[C@@H]1C[C@H]2CC[C@@H](C1)N2` [Compound 163], the IC50 in the assay on HTT mRNA is below 0.1 µM; in the assay with HTT CJ mRNA it was below 0.1 µM; in the assay on SMN2 CJ mRNA, below 0.1 µM; in the assay with Target C CJ mRNA, 0.1 to 1 µM. The same molecule showed an AC50 with HTT mRNA below 0.1 µM.

As for `c1cnn(-c2ccc3c(c2)COc2nc(N4CCC5(CCNCC5)C4)ccc2-3)c1` [Compound 182], the IC50 with HTT mRNA, in the assay on HTT CJ mRNA, with SMN2 CJ mRNA and in the assay on Target C CJ mRNA was above 10 µM each time. Further, the AC50 in the assay on HTT mRNA is above 10 µM.

Regarding `[2H]C([2H])([2H])N(c1ccc2c(n1)OCc1cc(-n3cccn3)ccc1-2)C1CCNCC1` [Compound 176], the half-inhibitory concentration (IC50) in the assay with HTT mRNA was 1 to 10 µM; with HTT CJ mRNA it was 1 to 10 µM; in the assay with SMN2 CJ mRNA, 1 to 10 µM; with Target C CJ mRNA, above 10 µM. In the assay on HTT mRNA, this molecule yielded an AC50 of 1 to 10 µM.

`CN(c1ccc2c(n1)OCc1cc(-c3cc(=O)n(C)cn3)ccc1-2)[C@@H]1C[C@H]2CC[C@@H](C1)N2` [Compound 162]: the IC50 with HTT mRNA, with HTT CJ mRNA, in the assay with SMN2 CJ mRNA and with Target C CJ mRNA was below 0.1 µM throughout. In addition, the AC50 with HTT mRNA was below 0.1 µM.

Take `CN(c1ccc2c(n1)OCc1cc(-n3cccn3)ccc1-2)[C@@H]1C[C@H]2CCC[C@@H](C1)N2` [Compound 178]: the IC50 with HTT mRNA is below 0.1 µM; with HTT CJ mRNA it was below 0.1 µM; in the assay on SMN2 CJ mRNA, below 0.1 µM; in the assay with Target C CJ mRNA it was 0.1 to 1 µM. The same molecule gave an AC50 with HTT mRNA below 0.1 µM.
